# Assay results published in US20210038559A1, “CANNABINOIDS AND DERIVATIVES FOR PROMOTING IMMUNOGENICITY OF TUMOR AND INFECTED CELLS” (priority 2018, published 2021).
# Legend:
# [1] = system: A9 tumors; assay: A9 tumor mouse model, intraperitoneal treatment; format: in vivo
# Source text: FIG. 7A-7B. Number of live lymphocytes observed within the tumor of tumor bearing mice (n=8 for PBS negative control and Cannabigerol treatments, n=6 for TSA positive control). A9 tumors were present in mice for 7 days before intraperitoneal treatment, and mice were sacrificed 4-5 days after treatment. Cannabigerol upregulation of MHC-I expression attracts increased number of lymphocytes which can infiltrate the tumor.
# To confirm the in vivo activity of cannabinoid compounds, a representative cannabinoid was tested in a representative animal model. A9 tumor cells were injected subcutaneously into mice at 8-10 weeks of age, and mice were treated 7 days later with either Cannabigerol, TSA, or Vehicle. 1×10^5 A9 cells were injected in a volume of 50 μL of PBS into the right flank of each mouse subcutaneously. Starting at day 7 after injection of the A9 tumor cells, intraperitoneal injections of Cannabigerol (Cayman Chemical Company) at 10 mg/kg, Trichostatin A (TSAX Sigma-Aldrich) at 0.5 mg/kg dissolved in 1% DMSO and PBS, or vehicle (0.2% DMSO, 5% Bovine Serum Albumin (BSA), in PBS) were administered daily to the animals. Cannabigerol was dissolved in 0.2% DMSO, 5% Bovine Serum Albumin, in PBS. Animals were weighed 3 times a week and during tumor measurements, and tumor measurements were begun upon appearance of the tumor, on […] of the trial. Tumor volume was determined using calipers to measure tumor dimensions. Mice were sacrificed at day 10, 11, and 12, as was dictated by subscribed humane endpoints, in which mice experienced tumor ulceration. Half of the tumors were removed from the mouse and immediately placed in digestion media (RPMI Medium 1640 (Gibco) with 10% FBS and Penicillin+Streptomycin (P+S), with the addition of 10% collagenase hyaluronidase, 15% DNAse I (Stemcell)). Tumors were chopped in 1 mL of digestion media and placed at a temperature of 35° C. for 30 minutes, before being passed through a 100 micron cell strainer (Falcon). […]
# [2] = system: MHC class I expression, mouse Lewis lung carcinoma cell line A9; assay: MHC class I expression in mouse A9 Lewis lung carcinoma cells, 24 hours, flow cytometry; format: cell-based; settings: 21 μM, relative to the DMSO control
# Protocol: FIG. 1A-1B. Cannabigerol stimulates MHC class I expression in the mouse A9 Lewis lung carcinoma (FIG. 1A) and the human COLO 205 colorectal carcinoma (FIG. 1B) cell lines. Cells were treated for 24 hours with 21.2 μM (A) or 25 and 50 μM (FIG. 1B) cannabigerol.
# Cannabigerol, a representative cannabinoid, was tested for its ability to also stimulate MHC class I expression in mammalian cancer cell lines. The mouse Lewis lung carcinoma cell line, A9, was treated with 21 μM of cannabigerol for 24 hours prior to flow cytometric analysis of cell surface expression of MHC class I expression levels using the MHC class I antibody W6/32 (Thermo Fisher). Control conditions included the vehicle, dimethyl sulfoxide (DMSO, 1%) alone, and 100 ng/ml of trichostatin A (TSA), a histone deacetylase inhibitor and known inducer of MHC class I expression in mammalian cells. […] The positive control, TSA, stimulated expression by 2.4-fold.
# [3] = system: MHC class I expression, metastatic mouse tumor cell line; assay: Indirect screen for compounds that increase MHC class I expression in a metastatic mouse tumor cell line; format: cell-based
# Source text: An assay has been developed to indirectly screen for compounds that increase MHC class I expression in a metastatic mouse tumor cell line (U.S. patent Ser. No. 14/548,726, Jefferies et. al., published 28 May 2015). This assay identified numerous compounds that increased MHC expression. […] In addition, some other cannabinoids induce expression of MHC class I on tumor cells.
# [4] = system: MHC-I expression on COLO 205 cells; assay: Phytocannabinoid MHC-I induction on COLO 205 cells, 0-100 μM, 48 hours
# Protocol: FIG. 4. Cell surface MHC class I expression was measured by flow cytometry (MFI).
# Phytocannabinoids were tested for MHC-I-inducing activity on COLO 205 cells. Each cannabinoid was tested at a concentration range of 0-100 μM. […] “ND” indicates not determined.
# [5] = system: MHC class I, A9 cells; format: cell-based, mouse; settings: 48 hours
# Protocol: FIG. 6. Cannabigerol treatment of A9 cells for 48 hours at various doses increases MHC class I protein expression, as determined by flow cytometry. […] IFN γ treatment was at 5.832×10^−6 in two mL of media.
# The effect of cannabigerol on MHC class I in A9 cancer cells were determined as follows. A9 cells (1×10^6) were plated onto a 6 well plate (Corning) in two mL of media. A9 cells were treated after 24 hours at various concentrations of Cannabigerol, 5.832×10^4 nM IFN gamma or DMSO vehicle for 48 hours. Cells were then harvested from the plate as per protocol and half of the cells were checked for MHC class I expression levels using flow cytometry. The Anti-mouse H2 KB APC antibody (Biolegend) was used at 1:200 in FACS buffer (2% FBS in PBS).
# [6] = 10 mg/kg intraperitoneal daily from day 7, versus Vehicle treated group
compound,measurement,setting,value
"CCCCCc1cc(O)c(C/C=C(\C)CCC=C(C)C)c(O)c1 [Example 1, 2-[(2E)-3,7-dimethyl-2,6-octadien-1-yl]-5-pentyl-1,3-benzenediol]",absolute numbers of lymphocytes in tumors,"[1]; 10 mg/kg intraperitoneal daily from day 7, relative to vehicle treated tumors",Much higher
same,Mouse weight,[1]; [6],similar
same,tumor volume,[1]; [6],similar
same,cell death,[2],limited cell death
same,increase in MHC class I expression,[2],1.8 fold
same,activity in the MHC class I screening assay,[3],significant activity
same,EC50,"[4]; Homo sapiens, COLO 205, 48 h",40 µM
same,Fold Induction,"[4]; MHC-I expression on COLO 205 cells, 0-100 μM, 48 hours, relative to control cells treated only with buffer",2.7 Fold
same,upregulation of class I MHC,[5]; 0.0275 μM,less upregulation
same,class I MHC expression,"[5]; 0.055 μM, relative to vehicle (DMSO), p value <0.0001, one-way ANOVA",significant increase
